Assay results: patent US9332753B2, “Plant volatiles based on R-curcumene” (Keygene N.V., priority 2009, dated 2016)
“Also recorded” adds a separate entry of the source.

Legend:
[1] = system: B. tabaci; assay: Correlation of identified headspace volatiles with whitefly repellence ranking (stepwise linear regression, MANOVA); design: species or system Bemisia tabaci biotype Q; settings: for Effect (semiochemical associated to B. tabaci repellence or attraction): first Table 5; for association (B. tabaci repellence or attraction): second Table 5; for Effect on insects: volatile related to whitefly repellence or attraction (Table 1)
Excerpt: In a large experiment (see Example 2), the headspace of 16 wild tomato accessions and 5 cultivated tomato lines were sampled and analyzed (6 repeats). In total 51 compounds were identified to be present in the captured headspace. Furthermore, the level of repellency/attraction of each of the 21 tomato accessions was established in free choice bioassays with B. tabaci (biotype Q), using a ranking scale of 1-7 (1=highest repellency to 7=lowest repellency). Next, the identified volatile compounds were correlated to the repellency/attraction score of each tomato accession through a linear regression analysis.
The headspace of 16 wild tomatoes and 5 cultivated tomatoes (Table 4) was collected. Undisturbed 3-weeks old tomato plants were transferred to 40-L desiccators. The headspace was sampled during 24 h including a 16 h light period, by trapping of the volatile components as described above. […] Each accession was sampled 6 times.
In a statistical analysis the correlation between the identified components of the tomato headspace and the ranking of whitefly repellence measured in the bioassays was made. Using two approaches, a stepwise-linear regression analysis and a MANOVA, 8 volatiles were identified to be correlated to whitefly repellence, whereas 24 other volatile compounds were eliminated as non-relevant for repellency or attraction.

[2] = system: B. tabaci antennae; assay: Electroantennography (EAG); design: species or system Bemisia tabaci
Description: Electroantennography (EAG) was employed to confirm the responsiveness of the atennae to 10-3 dilution in paraffin oil (Uvasol, Merck) of the chemicals described. Small pieces of filter paper (2 cm2; Schleicher & Schuell, Dassel, Germany) were soaked with 100 μl of the standard dilution or paraffin oil only (control). The filter paper was inserted into a 10-ml glass syringe (Poulten & Graf GmbH, Wertheim, Germany). A reproducible stimulus was supplied by puffing 5 ml of air over the antenna (Schutz et al., 1999). The EAG response was recorded for each standard dilution. The response to paraffin oil was considered as a negative control and was subtracted from all the reported EAG measurements.

[3] = system: B. tabaci; assay: Free choice bioassay with pure volatiles or mixtures added to one of four cv Moneymaker plants; assay type: in vivo, Bemisia tabaci biotype Q (Almeria population); settings: for behavioural effect (significance of effect on B. tabaci behaviour in choice-assays): significance stars, key not given; for effect on whitefly behaviour: one of four Moneymaker plants treated
Excerpt: For bioassays with headspace (total headspace or single compounds) four potted tomato plants (S. esculentum cv Moneymaker) were placed in a square setup at a distance of 50 cm. One hundred and fifty adult whiteflies were released and recorded as described above. To test the effect of selected headspace components on repellence, synthetic standards (FLUKA) were applied to either 10 filter-papers discs (Whatman, 25 mm diameter) or 10 rubber septa (Sigma Aldrich, Z167258). Prior to loading, the septa were placed in CH2Cl2 for 24 h and air-dried for 3 days (Heath et al., 1986). The paper discs or septa containing volatiles were attached to one of the four plants with metal wire. The position of the treated tomato was randomised. Five minutes after placing the volatiles on the plant, whiteflies were released. For each component at least 8 replications were carried out. Treatments were administered in a setup in which compounds were always added to the same plant in comparison to 3 plants with empty carriers. Prior to each assay with volatiles, the experiment was done with the 4 plants in an untreated setup, in the same position to allow comparison in the same background.
Host preference with and without manipulated headspace by B. tabaci was explored in free choice assays. In each setup four cultivated tomatoes (cv. Moneymaker) were tested as described earlier. For the bioassays with volatiles rubber septa (Sigma Aldrich Z167258) were extracted with CH2Cl2 for 24 hours and dried to the air for 3 days. The desired blend of volatiles was added to the rubber septa in 100 μl hexane. Bioassays with pure components, or mixtures of pure components were carried out as described above.
To positively confirm the correlation between the 7 candidate components and B. tabaci behaviour, host preference was assayed in bioassays with pure components. The desired (blend of) pure volatile chemicals were added, as described above, to the Moneymaker background on filter paper cards. […] The percentage of whiteflies visiting the treated plant decreased with 44% on average (p<0.001) (FIG. 2a) while the untreated plants harboured increased numbers of B. tabaci. […] To assess whether the sum of these three components would yield a greater effect than p-cymene alone, a mixture of p-cymene: gamma-terpinene: beta-myrcene in the same ratio as found in accession LA2560 (1:12:3) was tested. […] Finally, the sesquiterpenes were tested, tomato-derived 7-epi-zingiberene as well as its oxidation product R-curcumene, and zingiberene and its oxidation product S-crucume.

[4] = system: adult whiteflies B. tabaci; settings: cited from earlier work
[5] = system: fourth instar larvae of Colorado potato beetle; settings: cited from earlier work
[6] = Conversion on exposure to air; assay type: physicochemical
[7] = system: pests of cut flowers (e.g. B. tabaci); settings: fumigant, 10-20 mg/l, after 2-4 hours of exposure; cited from earlier work
[8] = responses of B. tabaci antennae
[9] = n = 5, mean response and scatter, 10^-3 dilution in paraffin oil

Row | SMILES | correlation with repellence or attraction of tomato accessions [1] | Effect (semiochemical associated to B. tabaci repellence or attraction) [1] | association (B. tabaci repellence or attraction) [1] | Effect on insects [1] | antennal response [2, 8] | behavioural effect (significance of effect on B. tabaci behaviour in choice-assays) [3] | toxic effect [4] | toxic effect [5] | stability when exposed to air [6] | antennal response [2, 9] | effect on whitefly behaviour [3] | mortality [7] | antennal recognition / sensitivity ([2]; electroantennography) | decrease of percentage of whiteflies visiting the treated plant ([3]; on average, vs same plant in untreated setup, p-cymene 10 μg, mixture ratio 1:12:3) [%]
1 | CC1=CC2C(CC1)C2(C)C (stereo not shown) [2-carene] | significantly correlated to the more attractive cultivated S. lycopersicum plants | attraction | attraction | Attractant | 3.9 mV | ns | – | – | – | – | – | – | – | –
2 | CCCCCCCCCCCC(C)=O [2-tridecanone] | – | – | – | – | – | – | toxic effect | – | – | – | – | – | – | –
3 | CCCCCCCCCC(C)=O [2-undecanone] | – | – | – | – | – | – | – | toxic effect | – | – | – | – | – | –
4 | CC(C)=CCC[C@@H](C)[C@@H]1C=CC(C)=CC1 [7-epi-zingiberene] | appear to be responsible for rendering the S. habrochaites (former typicum) more unattractive | repellence | repellence | Repellent | 2.3 mV | – | – | – | rapidly converted to R- and S-curcumene respectively | 23 (0-53) μV | clear repellent effect; also recorded: very effective in reducing the number of whitefly visitations | – | – | –
5 | CC1=CCC(C(C)C)C=C1 (stereo not drawn) [Alpha-phellandrene] | repellent compounds linked to S. pennelli | – | repellence | Repellent | 2.2 mV | – | – | – | – | – | – | – | – | –
6 | CC1=CC=C(C(C)C)CC1 [Alpha-terpinene] | repellent compounds linked to S. pennelli | – | repellence | Repellent | 4.1 mV | – | – | – | – | – | – | – | – | –
7 | CC12CCC(CC1)C(C)(C)O2 [Cineole] | – | – | – | – | – | – | – | – | – | – | – | caused mortality | – | –
8 | CC(C)=CCC[C@@H](C)c1ccc(C)cc1 [R-curcumene] | appear to be responsible for rendering the S. habrochaites (former typicum) more unattractive | repellence | repellence | Repellent | 5.0 mV | – | – | – | – | 50 (8-148) μV | clear repellent effect; also recorded: repelled | – | highest sensitivity | –
9 | CC(C)=CCC[C@H](C)c1ccc(C)cc1 [S-curcumene] | – | repellence | repellence | Repellent | 2.7 mV | – | – | – | – | 27 (3-60) μV | did not appear to repel | – | – | –
10 | C=CC(=C)CCC=C(C)C [beta-myrcene] | repellent compounds linked to S. pennelli | repellence | repellence | Repellent | ns | ns | – | – | – | – | did not influence whitefly behaviour | – | – | –
11 | C=C1C=CC(C(C)C)CC1 (stereo not drawn) [beta-phellandrene] | significantly correlated to the more attractive cultivated S. lycopersicum plants | attraction | attraction | Attractant | 2.5 mV | ns | – | – | – | – | decreased tomato attractiveness significantly | – | – | –
12 | CC1=CCC(C(C)C)=CC1 [gamma-terpinene] | repellent compounds linked to S. pennelli | repellence | repellence | Repellent | 1.9 mV | ns | – | – | – | – | – | – | – | –
13 | C=C(C)[C@H]1CC=C(C)CC1 [limonene] | significantly correlated to the more attractive cultivated S. lycopersicum plants | attraction | attraction | Attractant | 3.5 mV | ns | – | – | – | – | – | – | – | –
14 | Cc1ccc(C(C)C)cc1 [para-cymene] | repellent compounds linked to S. pennelli | repellence | repellence | Repellent | 2.4 mV | – | – | – | – | – | – | – | – | 44
15 | C=CCc1ccc2c(c1)OCO2 [safrole] | – | – | – | – | – | – | – | – | – | – | – | caused mortality | – | –
16 | CC(C)=CCC[C@H](C)[C@@H]1C=CC(C)=CC1 [zingiberene] | – | repellence | repellence | Repellent | 2.1 mV | – | – | – | rapidly converted to R- and S-curcumene respectively | 21 (5-30) μV | did not appear to be repelled | – | – | –
